As usually defined, the IC50 is the concentration at which inhibition is half-maximal.

Like-named read-outs stand apart in the source and are kept apart here.

1 compound from US9474759B2 (priority 2011, dated 2016) can be followed below.

Test [1] has as its system HAV. Description: Cell culture system, HAV replication in FRhK-4 cells (Example 3). The format is cell-based, hepatitis A virus.
In test [2] the test system is HAV. Description: Cell-based screening, HAV (Example 2). Also noted: species or system hepatitis A virus. Particulars: Picornaviridae; read-out: Inhibition [ED50 (μM)] against various viruses: Picornavirus, HAV. As to the method: (§1) 3. Cell-based screening of inhibitor. The effects of each inhibitor on the viral replication were examined. The list of viruses and corresponding cell lines are listed above in Table 2. Briefly, confluent cells were inoculated with virus at a MOI of 5 or 0.05 for 1 hr, and medium was replaced with medium containing mock-medium or each compound (up to 100 μM). The virus infected cells were further incubated for up to 96 hrs, and the replication of virus was measured by TCID50 assay with the 10-fold dilution of each sample used for virus titration (Reed and Muench, 1938). In some viruses, the virus protein and genome expression levels were detected by Western blot analysis and real-time qRT-PCR, respectively, as described below. The IC50s of the compounds were calculated.

The subject of test [3] is norovirus (NV replicon-harboring HG23 cells). Description: NV replicon-harboring cells (HG23), NV genome levels by qRT-PCR (Example 1). The format is cell-based, Norwalk virus. Particulars: read-out: ED50, effective dose that inhibits 50% of norovirus replication, NV genome levels at 24 hrs post-treatment.
Test [4] deals with SARS-CoV 3CLpro (codon-optimized, N-terminal 6 His, recombinant) (Severe acute respiratory syndrome coronavirus, UniProt P0C6X7). Description: biochemical.
Test [5] relates to FCV. Description: Cell-based screening, FCV in CRFK cells (Example 2). As to conditions: Feline calicivirus; CRFK cells; read-out: Inhibition [ED50 (μM)] against various viruses: Calicivirus, FCV. As to the method: as §1
The subject of the next test is 229E. In words: Cell-based screening, 229E in MRC-5 cells (Example 2). Particulars: Human coronavirus 229E, MRC5; MRC-5 cells; read-out: Inhibition [ED50 (μM)] against various viruses: Coronavirus, 229E. As to the method:
as §1

The subject of test [6] is FCV. Description: Cell culture system, FCV replication in CRFK cells (Example 3). Type of test: cell-based, feline calicivirus. As to conditions: Feline calicivirus; cell-based assay, CRFK cells; read-out: IC50 against FCV replication.
Test [7] deals with Norwalk virus 3CL protease (Norovirus, UniProt Q83883). In words: Recombinant NV protease fluorogenic substrate inhibition assay (Example 1). Type of test: biochemical. Particulars: 30 min pre-incubation, 30° C., pH 8.0. As to the method:
(§2) After a 30 minute incubation period, 5 μL of 12 μM Edans-[…]-Dabcyl (SEQ ID NO:1) substrate in DMSO was then added and the increase in fluorescence was monitored for 30 minutes at an excitation and emission wavelength of 360 and 460 nm, respectively. Using a HORIBA FluoroMax 4 spectrofluorometer. Hydrolysis curves were linear. The final enzyme and substrate concentrations were 2.5 μM and 300 nM, respectively. […] Furthermore, the nature of the cap was also important (compare, for example, inhibitors A and D).

A further test relates to EV71. In words: Cell-based screening, EV71 in Vero cells (Example 2). Also noted: species or system enterovirus 71. Particulars: Enterovirus A, EV71; Vero cells; read-out: Inhibition [ED50 (μM)] against various viruses: Picornavirus, EV71. As to the method:
as §1

Test [8] deals with murine norovirus-1 (MNV-1). Description: MNV-1 replication in RAW267.4 cells, TCID50 (Example 1). Type of test: cell-based. Particulars: Norwalk virus, MOI 2, TCID50 assay, read-out: ED50, replication of murine norovirus (MNV).
Test [9] has as its target PV 3Cpro (codon-optimized, N-terminal 6 His, recombinant) (Poliovirus type 1, UniProt P03300). Description: biochemical. Also noted: species or system poliovirus (poliomyelitis virus).
For the next test, the system named is FECV-1683. Description: FECV-1683 replication in CRFK cells, TCID50 method. The format is cell-based, feline coronavirus. Particulars: Alphacoronavirus 1, MOI 0.05, mean ± SEM. As to the method:
(§3) Crandell Rees feline kidney (CRFK) cells were maintained in minimal essential medium containing 2-5% fetal bovine serum and antibiotics (chlortetracycline [25 μg/ml], penicillin [250 U/ml], and streptomycin [250 μg/ml]). FIPV WSU 79-1146 and FECV WSU 79-1683 strains are the prototypes of serotype II FIPV or FECV, respectively, and were purchased from ATCC (Manassas, Va.).
(§4) The cells were further incubated in the presence of each compound for 1 hr at 37° C. Then […] or FECV-1683 was inoculated to the cells at a multiplicity of infection (MOI) of 0.05 or 5.
(§5) b. TCID50 Method. A standard TCID50 method with the 10-fold dilution of each sample was used for virus titration.

In the next test the test system is MHV. Description: Cell-based screening, MHV in CCL-9.1 cells (Example 2). On the set-up: species or system mouse hepatitis virus. Particulars: Murine coronavirus; CCL-9.1 cells; read-out: Inhibition [ED50 (μM)] against various viruses: Coronavirus, MHV.
The next test concerns FIPV-1146. Description: FIPV-1146 replication in CRFK cells, TCID50 method. Type of test: cell-based, feline coronavirus. Particulars: Alphacoronavirus 1, MOI 0.05, mean ± SEM. As to the method: as §3, §4, §5
Test [10] deals with Norwalk virus 3CL protease (NV3CL protease), recombinant (Norovirus, UniProt Q83883). Description: Recombinant NV protease FRET inhibition assay (Edans-[…]-Dabcyl substrate), FIG. 4. The format is biochemical. As to conditions: 2.5 μM enzyme, 300 nM Edans-EPDFHLQGPEDLAK-Dabcyl, 30 min incubation, 30° C., pH 8.0. As to the method:
as §2

A further test concerns Teschovirus. In words: organism not typed. As to conditions: read-out: Inhibition [ED50 (μM)] against various viruses: Picornavirus, Teschovirus. The format is cell-based, porcine teschovirus.
The target of test [11] is MD145 3CLpro (codon-optimized, full-length, N-terminal 6 His, recombinant) (Lordsdale virus, UniProt P54634). In words: biochemical. On the set-up: species or system norovirus strain MD145 (human norovirus GII).
MD145 3CLpro (codon-optimized, full-length, N-terminal 6 His, recombinant), sequence (P54634 1009-1189): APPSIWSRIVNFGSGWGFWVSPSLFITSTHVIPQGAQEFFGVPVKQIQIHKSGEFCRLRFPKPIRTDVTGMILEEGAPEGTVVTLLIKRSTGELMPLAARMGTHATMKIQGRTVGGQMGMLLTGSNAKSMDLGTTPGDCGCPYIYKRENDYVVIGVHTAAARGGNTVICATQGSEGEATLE

PV 3Cpro (codon-optimized, N-terminal 6 His, recombinant), sequence (P03300 1566-1748 limits assumed): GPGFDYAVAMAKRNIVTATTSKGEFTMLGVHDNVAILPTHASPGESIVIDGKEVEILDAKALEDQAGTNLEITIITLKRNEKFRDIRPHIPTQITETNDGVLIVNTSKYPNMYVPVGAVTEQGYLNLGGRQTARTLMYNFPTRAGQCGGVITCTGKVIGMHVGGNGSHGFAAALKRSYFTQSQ
Norwalk virus 3CL protease, sequence (Q83883 1101-1281): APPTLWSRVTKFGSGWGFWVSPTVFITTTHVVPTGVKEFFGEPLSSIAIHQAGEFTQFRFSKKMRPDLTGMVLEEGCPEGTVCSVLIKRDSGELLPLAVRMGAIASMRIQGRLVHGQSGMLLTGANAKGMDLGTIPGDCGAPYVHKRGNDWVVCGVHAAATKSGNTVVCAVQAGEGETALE
Norwalk virus 3CL protease (NV3CL protease), recombinant, sequence (Q83883 1101-1281): as above

Regarding `CC(C)C[C@H](NC(=O)OCc1ccccc1)C(=O)N[C@H](C=O)C[C@@H]1CCNC1=O` [GC373], the “effectiveness against the replication of HAV in cells (in words)” value in the test on HAV [1] is on record as “no or weak effectiveness”. In addition, the EC50 in the test with HAV [2] is over 100 µM; in [3] it was 2.1 µM; in the test with FCV [5] it was 65 µM; in the test on 229E it was 0.2 µM; with EV71, 11 µM; in [8] it was 5.5 µM. Besides, the EC50 in the test on FECV-1683 (24 hr post infection, read-out: Inhibition [ED50 (μM)] against FECV-1683, 24 hrs) came out at 0.04 ± 0.01 µM; in the test on FECV-1683 (48 hr post infection, read-out: Inhibition [ED50 (μM)] against FECV-1683, 48 hrs) it was 0.09 ± 0.01 µM; with MHV, 2 µM; in the test on FIPV-1146 (24 hr post infection, read-out: Inhibition [ED50 (μM)] against FIPV-1146, 24 hrs) it was 0.07 ± 0.04 µM; in the test on FIPV-1146 (48 hr post infection, read-out: Inhibition [ED50 (μM)] against FIPV-1146, 48 hrs) it was 0.43 ± 0.35 µM; with Teschovirus, 0.15 µM. Further, the IC50 in test [4] was determined as 3.48 ± 1.59 µM; in the test on FCV [6], 65 µM; in test [9] it was 2.02 ± 1.56 µM; in [10] it was 1.82 µM; in [11] it was 1.18 µM. The “inhibitory activity against Norwalk virus 3CL protease (in words)” value in [7] is on record as “dose-dependent inhibition”.
